The values that follow come from patent publication US20230357248A1, “PYRROLOPYRIMIDINE COMPOUND AS BTK INHIBITOR AND USE THEREOF” (MEDSHINE DISCOVERY INC., priority 2019, published 2023).

Series [1] in a line: Assay of kinetic solubility. Particulars: buffer solution, aqueous buffer, kinetic from dmso stock, pH 6.5 in table head (method says pH 7.4), 24 hours room temperature, theoretical maximum 200 μM. The series is classed as physicochemical. The protocol:
The assay compound was dissolved in DMSO to prepare 10 mmol/L stock solution. 980 μL of dissolution medium was added to a 2 mL glass vial with a screw cap using a pipette (Eppendorf Research Company). […] The final concentrations of the assay compound and DMSO solution were 200 μM and 2%, respectively. The vias were capped. The theoretical maximum concentration was 200 μM. The mixture was shaken at 880 rpm at room temperature for 24 hours. The vials were centrifuged at 13,000 rpm for 30 minutes. 200 μL of supernatant was added to a 96-well plate using a digital pipette.

A short description of series [2]: Pharmacokinetic evaluation in CD-1 mouse (oral). The series is classed as in vivo. The following applies: 3.1 mg/kg. The protocol:
Assay purpose: To assay the pharmacokinetics of the compound in CD-1 mouse (oral)
Pharmacokinetic study of oral and intravenously injected compound 4 and reference example 1 (compound 005-1) in CD-1 mouse.
Compound 4 and reference example 1 (compound 005-1) were mixed with the solvent (10% NMP/60% PEG400/30% H2O). The mixture was vortexed and sonicated to prepare a clarified solution of 0.6 mg/mL. 7- to 10-week old CD-1 male mice were selected, and the candidate compound solution was administered […] at a dose of 3.1 mg/kg.
Whole blood was collected for a certain period of time to prepare the plasma. Drug concentration was analyzed by LC-MS/MS, and pharmacokinetic parameters were calculated by Phoenix WinNonlin software (Pharsight, USA).

A further series concerns TMD8 cells. In words: BTK cell activity assay (CellTiter Glo). The series is classed as cell-based. Particulars: Homo sapiens, Cell Titer Glo, read-out: Relative IC50. The protocol:
1. Cell Culture and Passage
The medium, trypsin and 1×PBS used in the cell passage process were preheated in a 37° C. water bath. The supernatant was aspirated.
1 mL of trypsin was added to rinse, and the rinse solution was aspirated. 1 mL of trypsin was added, respectively, and cells were digested at 37° C. until the cells fell off. 10 mL of culture medium was added and mixed well. The mixture was centrifuged at 1000 rpm for 5 min and the cells were resuspended in 10 mL of culture medium. 0.7 mL of cell suspension was pipetted into a counting cup and counted on ViCell XR to respectively obtain a cell density of 0.327 million/mL. 1.17 mL of cell suspension and culture medium were weighed, respectively, to dilute the cell suspension. According to the microplate layout diagram below, 100 μL of phosphate buffer was added to the peripheral wells of the 384-well microplate, and 40 μL of cell suspension was added to other wells, respectively. The cell plate was then cultured in an incubator.
2. Dosing • (1) Preparation of compound:
A 9 μL dilution of the compound to be assayed was added to a shallow-well plate for Pod (Labcyte, #LP-0200). The shallow-well plate was centrifuged at 2500 rpm for 30 s. • (2) The cell plate was removed from the incubator. • (3) According to the microplate layout diagram below, compounds were serially diluted 3-fold in Pod to obtain 10 concentrations. The diluted compounds were added to the cell plate at 100 nL, respectively, and then the cell plate was returned to the incubator for culture. • 3. At Day 0, 20 μL of CellTiter Glo was added to the plate with DMSO added, and the mixture was shaken in the dark for 10 minutes. The plate was read with Envision. • 4. At Day 5: CTG was added and the plate was read. • (1) After being cultured for 72 h, 20 μL of Cell Titer Glo was added to the cell plate, and the mixture was shaken in the dark for 10 minutes. • (2) The plate was read with Envision.
Assay Results • 1. Average value and standard deviation of 0% inhibition (DMSO well, MAX) and 100% inhibition (day 0, DMSO) in each group were calculated; • 2. […]

The nature of series [3]: Pharmacokinetic evaluation in SD rat (intravenous). The series is classed as in vivo. Particulars: about 0.5 mg/kg. Here is the method: Assay purpose: To assay the pharmacokinetics of the compound in SD rat (intravenous)
Pharmacokinetic study of oral and intravenously injected compound 4 and reference example 1 in SD rat.
Compound 4 and reference example 1 were mixed with the solvent (10% NMP/60% PEG400/30% H2O). The mixture was vortexed and sonicated to prepare a clarified solution of 0.5 mg/mL. […] Whole blood was collected for a certain period of time to prepare the plasma. Drug concentration was analyzed by LC-MS/MS, and pharmacokinetic parameters were calculated by Phoenix WinNonlin software (Pharsight, USA).

Series [4] can be described thus: Plasma protein binding (PPB) assay, M. The series is classed as in vitro ADME. The following applies: mouse, dialysis 4 hr 37° C. The protocol: Assay procedure: 995 μL of blank plasma of various genera were weighed, and 5 μL of assay compound working solution (400 μM) or warfarin working solution (400 μM) was added so that the final concentrations of the assay compound and warfarin in plasma sample were each 2 μM. The samples were mixed thoroughly. The final concentration of DMSO (the organic phase) was 0.5%. 50 μL of the plasma samples of the assay compound and warfarin were pipetted to a sample receiving plate (in triplicate), and the corresponding volume of corresponding blank plasma or buffer was added immediately, so that the final volume in each sample well was 100 μL, wherein the volume ratio of plasma:dialysis buffer was 1:1. 500 μL of stop solution was then added to these samples. These samples were used as T0 samples for determination of recovery and stability. […] All samples were subjected to protein precipitation, and then analyzed by LC/MS/MS. Bound rate and recovery rate of protein were calculated using the following formulae: % Unbound=100*F/T, % Bound=100−% Unbound, % Recovery=100*(F+T)/T0 (wherein F is the peak area ratio of the compound in the dialysate after 4 h of dialysis; T is the peak area ratio of the compound in the plasma after 4 h of dialysis; To is the peak area ratio of the compound in the plasma sample at time zero).

Values after ≈ are worked out from the molar mass of the structure shown.

What is called solubility is how much of the substance goes into solution per volume. High values mean a readily soluble substance, low ones a poorly soluble substance. What is called AUC(0-inf) is total exposure, with the tail of the curve extrapolated. Higher therefore signals high exposure. By Cmax is commonly meant the peak of the concentration-time curve. As a reminder, the bioavailability is dose-corrected exposure relative to a reference, in per cent. Read a high bioavailability as much systemic uptake. For orientation: half-life means the time needed for the level to fall by half in the phase considered. Low readings indicate fast loss, high ones slow loss. A word on the IC50: it is the midpoint of a concentration-inhibition curve. A word on the Vd: it is a proportionality between amount in the body and measured concentration, not a real space. Read a low Vd as little distribution into tissue. The term clearance denotes the volume of plasma or blood freed of the substance per unit of time. One may read the fraction unbound as free concentration divided by total concentration. A higher fraction unbound goes with weak binding. Consider `CO[C@@H]1C[C@@H](CO)OC[C@@H]1Nc1ncnc2[nH]cc(C(=O)c3ccc(Oc4ccccc4)cc3Cl)c12` [Compound 4], for which the solubility at 24 h in series [1] amounted to 1.1 µM (≈ 0.56 µg/mL). In series [2] (AUCu = AUC0-inf * Unbound PPB (Mouse)), this compound had an AUCu of 0.133 µM·h. In series [2] (male, plasma), the AUC(0-inf) turned out to be 33.2 µM·h, the Cmax was 2980 nM, the bioavailability is 71.7% and the half-life is 3.73 h. For the same compound, the concentration for half-maximal inhibition (IC50) in the series on TMD8 cells was found to be 261 nM. For the same compound, the AUCu in series [3] (AUCu = AUC0-inf * Unbound PPB (in vivo assay of PPB in rat)) came out at 0.0034 µM·h. In series [3] (male, plasma), the AUC(0-inf) is 1.7 µM·h, the C0 was determined as 852 nM, the Vd turned out to be 1.42 L/kg and the clearance came to 9.8 mL/min/kg. The compound also had a half-life in series [3] (male, plasma) of 1.82 h. The fraction unbound at 4 h, 2 μM in series [4] worked out at 0.004.
